# Results taken from patent US11471467B2, “Ruthenium complexes for treating cancer which comprises cancer stem cells” (UNIVERSIDADE DE SANTIAGO DE COMPOSTELA, priority 2016, dated 2022).
# Legend:
# [1] = tested on: guanosine monophosphate (GMP); test: GMP binding (metallation) assay, HPLC; details: complex 250 μM, GMP 750 μM, 10 mM phosphate buffer pH 7.5, 100 mM NaCl
# Protocol: High-performance liquid chromatography (HPLC) was carried out using Agilent 1100 liquid chromatography-mass spectrometer equipment. Analytical HPLC was carried out using a Phenomenex Luna-C18 reversed-phase analytical column (10×250 mm, 5 μm), 1 mL/min, with different gradients (see below). […] Electrospray ionization mass spectrometry (ESI/MS) was performed with an Agilent 1100 Series LC/MSD VL G1956A model in positive polarity mode.
# First, guanosine monophosphate (GMP) metallating capacity of complex 1 was studied. To that end, complex 1 (250 μM) was mixed with 3 equivalents of GMP (750 μM) in 10 mM phosphate buffer (pH=7.5) and 100 mM NaCl.
# To confirm that GMP metallation is completely orthogonal, competitive experiments were carried out with the other three nucleotides (AMP, CMP, and TMP). Specifically, complex 1 (250 μM) was mixed with GMP (3 equiv, 750 μM), AMP (3 equiv, 750 μM), TMP (3 equiv, 750 μM), and CMP (3 equiv, 750 μM) in 10 mM phosphate buffer (pH=7.5) and 100 mM NaCl.
# To that end, complex 1 (250 μM) was mixed with GMP (3 equiv, 750 μM) in the presence of H-Lys(Boc)-OH (3 equiv, 750 μM) or Ac-Cys-OH (3 equiv, 750 μM) in 10 mM phosphate buffer (pH=7.5) and 100 mM NaCl.
# Complex 4 (250 μM) was mixed with 3 equivalents of GMP (750 μM) in 10 mM phosphate buffer (pH=7.5) and 100 mM NaCl.
# c-MYC [2] = test: c-MYC protein expression by Western blot in HeLa cells; type: cell-based
# Protocol: FIG. 11. (Left) Analysis of the expression levels of c-MYC (light colored bars) and ALAS1 (dark colored bars) by means of qRT-PCR. HeLa cells were incubated for 16 h or 48 h with 100 μM of complex 1 (RuCl), TMPyP4, or 50 μM of 5-FU. The levels are expressed in relation to the expression levels of the GAPDH gene. The values are the average of three experiments, and the error bars indicate standard error. (Right) Analysis of the expression of c-MYC by means of Western blot. HeLa cells were incubated for 16 h with 100 μM of complex 1 (RuCl) and then lysed, and c-MYC was detected by means of SDS-PAGE followed by Western blot with an anti-MYC antibody (right, upper panel). The relative amount of protein in two independent experiments was quantified by means of densitometry (right, lower panel). The data is represented as the factor of change with respect to untreated controls. The error bars indicate the standard deviation of the factor of change with respect to untreated controls.
# FIG. 14. (Left) Transcription levels of c-MYC determined by means of qRT-PCR in the dark (black bars) or after irradiation (60 min, white bars). […] The expression values are relative to the expression of the GAPDH gene. (Right) Expression levels of c-MYC protein determined by means of Western blot in the presence or absence of complex 5. The relative amount of protein with respect to the expression levels of β-actin was quantified by means of densitometry (lower panel). The experimental method was similar to the one described in FIG. 11.
# FIG. 15. […] The light colored bars correspond to expression levels of c-MYC under irradiation conditions whereas the dark colored bars correspond to darkness conditions. […] The relative levels of protein with respect to the expression levels of β-actin were quantified by means of densitometry.
# HeLa cells were incubated to a confluence of 50% in the presence of the indicated concentrations of the assayed agents for 16 h. […] The c-MYC protein was detected by means of an anti-MYC antibody (Santa-Cruz Biotechnologies). […]
# c-MYC [3] = test: c-MYC protein expression by Western blot in PDAC cells; type: cell-based
# Protocol: FIG. 17. Effects of complex 2 (RuH2O) on pancreatic ductal adenocarcinoma (PDAC) cells.
# FIG. 18. […] Western blot analysis of the expression of c-MYC in cultures 24 and 48 h after treatment with RuH2O.
# On one hand, the inventors analyzed if complex 2 may increase c-MYC expression in pancreatic CSCs, and on the other hand, if the increase in c-MYC expression would negatively affect the CSC phenotype, for example, CSC self-renewal capacity. […] After having achieved a substantial increase in c-MYC expression, it was then analyzed if the CSC self-renewal capacity was affected. To that end, briefly the PDAC cells were pre-treated twice with complex 2 (RuH2O) at a concentration of 100 and 250 μM before establishing sphere cultures in […] as described in Cioffi M (Cioffi M et al. 2015 Gut 12: 1936-1948). The spheres were again treated on day 4 after sphere formation.
# Panc185 cells = test: Tumorigenicity of pretreated PDAC cells injected subcutaneously into NOD-SCID mice; type: in vivo
# Protocol: FIG. 22. Effects of RuH2O on PDAC sphere formation. (A) Work sequence of the experiment for evaluating the effect of RuH2O in PDAC CSC (B) Light micrographs of spheres derived from Panc185 and PancA6L cells after 10 days of treatment with 250 μM of RuH2O FIG. 23. Effects of RuH2O on PDAC tumorigenicity in vivo. Panc185 cells were pretreated with RuH2O before subcutaneous injection into NOD-SCID (non-obese diabetic, severe combined immunodeficiency) mice. Tumors were extracted 12 weeks after injection and analyzed. A) Photographs of the tumors extracted from NOD-SCID mice 12 weeks after being injected with 10^4 or 10^3 Panc185 cells and pretreated with control (CTL) or 250 μM of RuH2O. (B) Summary of the numbers of tumors detected per injection with 10^4 or 10^3 Panc185 cells and pretreated with control (CTL) or 250 μM of RuH2O. (C) Weights of the tumors extracted from NOD-SCID mice 12 weeks after being injected with 10^4 or 10^3 Panc185 cells and pretreated with control (CTL) or 250 μM of RuH2O.
# FIG. 27. Tumorigenicity of PDAC cells after treatment with RuH2O. PDAC cells were treated with the indicated concentrations of RuH2O for 48 hours and then injected subcutaneously into NOD-SCID mice. Tumors were extracted 7 or 11 weeks after injection.
# The spheres were then disassociated and equal numbers of control-treated cells and RuH2O-treated cells were injected subcutaneously into immunocompromised NOD-SCID mice to evaluate the tumorigenicity thereof. Twelve weeks after the injection, the tumors were extracted and weighed. […] While 4 out of 4 injections and 5 out of 6 injections with 10,000 and 1,000 control-treated cells, respectively, led to tumors, only 1 out of every 6 injections with 10,000 RuH2O-treated cells led to tumor. […] Furthermore, the only tumor that developed in the mouse injected with 10,000 RuH2O-treated cells weighed 53 times less than the tumors formed in control-treated mice (0.0058 g with respect to 0.3118 g).
# The trypsinized cells were then: 1) placed in a plate at a low confluence to evaluate their clonogenicity (FIG. 25); 2) repeatedly cultured in ultra-low adherent plates in serum-free DMEM/F12 supplemented with B27 for intervals of 7 days to evaluate sphere formation capacity over multiple generations (FIG. 26); and 3) subcutaneously injected into NOD-SCID mice to check their tumorigenicity as described above (FIG. 27).
# Finally, the tumorigenicity of sphere-rich CSCs was studied as described above.
substance,measurement,setting,value
[Ru(terpy) (bpy)H2O]^2+ [complex 2],"GMP metallation, conversion to monoadduct 3",[1]; 30 min at room temperature in the dark,63%
same,"GMP metallation, conversion to monoadduct 3",[1]; 30 min irradiation at 455 nm,complete conversion
same,c-MYC protein expression,c-MYC [2]; in the dark,active both in the dark and upon being irradiated
same,c-MYC protein expression,c-MYC [2]; under irradiation with light,active both in the dark and upon being irradiated
same,c-MYC protein expression,"c-MYC [3]; PDAC cells, 100 and 250 μM, 6, 12 or 24 hours",expression of c-MYC increased after treatment
same,c-MYC protein expression,"c-MYC [3]; PDAC cells, 100 and 250 μM, 6, 12 or 24 hours, listed as Complex 2",increases the expression of c-MYC
same,c-MYC protein expression,"c-MYC [3]; Panc185 and PancA6L cells, 100 μM, 24 hours after treatment",increased c-MYC protein expression
same,c-MYC protein levels,"c-MYC [3]; Panc185 and PancA6L cells, 48 hours after treatment",significant decrease in c-MYC protein levels
same,tumor formation,"Panc185 cells; 1,000 sphere-derived cells pretreated with 250 μM, NOD-SCID mice, 12 weeks",Tumors did not form
same,"tumor weight, times less than control-treated","Panc185 cells; 10,000 pretreated cells, 12 weeks",53 times
same,tumor weight,"Panc185 cells; 10,000 pretreated cells, 12 weeks, the only tumor",0.0058 g
same,tumorigenicity,"Panc185 cells; adherent cultures treated 48 hours, injected subcutaneously into NOD-SCID mice, 7 or 11 weeks","prevents clonogenicity, self-regeneration, and tumorigenicity"
